Columns and labels:
myeloperoxidase (MPO) = experiment: Myeloperoxidase activity in colon tissue of DSS-treated mice; assay type: in vivo
Description: To further assess the effect of MC12 on the inflammatory changes associated with DSS induced colitis, myeloperoxidase (MPO) activity and cytosolic phospholipase A2 (cPLA2) in tissue samples was determined.
MPO activity is an indicator of the degree of acute inflammation in a given tissue. MPO activity was measured using a commercial kit and following the instructions of the manufacturer (Invitrogen, Eugene, Oreg.). Briefly, a portion of colon tissue was homogenized in PBS and centrifuged at 10,000×g for 15 min and 50 μl of supernatant from each sample were added into a 96-well microplate. 50 μl of 2×APF working solution was added to all sample and standard wells and the plate was incubated at room temperature for 30 min. The reaction was stopped by adding 10 μl of 10× chlorination inhibitor. The fluorescence intensity was measured using a Multiplate Reader (Molecular Devices) at excitation at 485 nm, emission at 530 nm.
To assess the effect of MC-12 on the inflammatory changes associated with DSS-induced colitis, myeloperoxidase activity in tissue samples was determined as above.

DSS-induced colitis [1] = experiment: DSS-induced colitis in mice, MC12 40 or 80 μg/mouse ip (Example 1); assay type: in vivo
Description: (§1) Female C57BL/6 and SJL/J mice (Taconic, Hudson, N.Y.), 7-9 weeks old, were kept under controlled temperature (25° C.) with a 12/12-hour light-dark cycle and free access to standard diet and drinking water. The mice were allowed to acclimate for 7 days before the start of experiments.
The mice received 2% dextran sulfate sodium (DSS, MW 36,000 to 50,000, MP Biomedicals, Solon, Ohio) in drinking water for 7 days; control mice received regular drinking water. During the period when DSS was administered, treated mice were given MC12 40 or 80 μg/mouse intraperitoneally (i.p.) whereas the control group was given saline i.p. The mice were weighed and monitored for rectal bleeding or prolapse daily. All mice were euthanized at the end of the study. Blood samples were collected and colons were dissected and their length was measured. The middle part of colon was fixed in 4% neutralized formalin and the rest was frozen for molecular analyses.
Paraffin-embedded tissue sections were stained with hematoxylin and eosin (H&E). In these sections, the histological score was determined based on epithelial denudation, loss of crypts, ulceration, edema and leukocyte infiltration using criteria that have been described previously (see Perretti, F. et al., 2009, Nat Rev Immunol 9:62-70)

TNBS-induced colitis = TNBS-induced colitis (experimental Crohn's disease) in SJL/J mice; assay type: in vivo
Description: TNBS (2,4,6-trinitro benzene sulfonic acid) induces a form of colitis in SJL/J mice that recapitulates Crohn's disease. The optimal dose of TNBS was determined to be 100 μl of a 2.5% ethanolic solution instilled intracolonically. SJL mice received 2.5% TNBS solution in 50% ethanol by intra-colonic instillation using a 3.5 F catheter, which was inserted 4 cm into the colon under mild ketamine/xylazine anesthesia. Mice received MC-12 25 mg/kg or vehicle ip twice a day for two days. Body weight was monitored daily and mice were euthanized on the third day when blood and colon tissues were collected as described above for further analysis.
(§2) The fixed colon was cut into six equal fragments, dehydrated and embedded into paraffin. The tissue sections were stained with hematoxylin and eosin (H&E). The histological score was determined by two pathologists as described, based on the degree (0-3) and extent (0-3) of inflammation, crypt damage (0-4) and the area involved (0-4). The scores of each of the first three parameters were multiplied by the fourth and the sum of these three multiples was the final score (ranging from 0 to 40).

[2] = system: NF-κB in NCM 460 cells (normal colon epithelial cells); experiment: NF-κB DNA binding activity (EMSA) in DSS-treated NCM460 cells; assay type: cell-based
DSS-induced colitis [3] = experiment: DSS-induced colitis in mice, MC-12 5 or 25 mg/kg ip or po (Example 4); assay type: in vivo; conditions: for reduction of histological score compared to DSS control: p<0.01
Description: as §1
The mice received 2% dextran sulfate sodium (DSS, MW 36,000 to 50,000, MP Biomedicals, Solon, Ohio) in drinking water for 8 days; control mice received regular drinking water. During the period when DSS was administered, treated mice were given MC-12 at 5 or 25 mg/kg intraperitoneally (ip) whereas the control group was given saline ip. As above, the mice were weighed and monitored for rectal bleeding or prolapse daily. All mice were euthanized at the end of the study period. Blood samples were collected and colons were dissected and their length was measured. The middle part of colon was fixed in 4% neutralized formalin and the rest was frozen for molecular analyses. Paraffin-embedded tissue sections were stained and scored as above.
as §2

[4] = 2% DSS, MC12 40 or 80 μg/mouse ip

For Gln-Ala-Trp (QAW) [MC12], the MPO activity (myeloperoxidase (MPO); MC12 80 μg dose) was “essentially normalized”, the MPO activity (myeloperoxidase (MPO); MC12 40 or 80 μg) was “significant (p<0.01) and concentration-dependent reduction in MPO activity” and the MPO activity (myeloperoxidase (MPO); MC-12 25 mg/kg) was “essentially normalized”. The MPO activity (myeloperoxidase (MPO); MC-12 5 or 25 mg/kg) was “significant (p<0.01) and concentration-dependent reduction in MPO activity”, the “DSS-induced colonic inflammation (H&E histology)” value (DSS-induced colitis [1]; 40 μg per mouse ip) was “significantly decreased DSS-induced colonic inflammation” and the “DSS-induced colonic inflammation (H&E histology)” value (DSS-induced colitis [1]; 80 μg per mouse ip) was “also decreased DSS-induced colonic inflammation”. For the same substance, the weight loss (DSS-induced colitis [1]; 2% DSS 7 days, MC12 40 or 80 μg/mouse ip) was “dose-dependent reduction in weight loss”, the “colon length (DSS-induced reduction)” value (DSS-induced colitis [1]; [4]) was “prevented this reduction in colon length in a dose-dependent manner” and the histological colitis score (DSS-induced colitis [1]; [4]) was “reduced the histological colitis score dose-dependently”. For the same substance, the “change in body weight” value (DSS-induced colitis [1]; 2% DSS, higher dose 80 μg/day ip, day 7) was “essentially no change in their weight”, the “histological colitis score, significance of reduction” value (DSS-induced colitis [1]; higher MC12 dose (80 μg)) was “statistically significant” and the “inflammatory cell infiltration and crypt loss (histology)” value (TNBS-induced colitis; 25 mg/kg bid for 2 d) was “decreased the inflammatory cell infiltration and crypt loss”. The “TNBS-caused shortening of colon length” value (TNBS-induced colitis; 25 mg/kg ip bid 2 d) was “did not prevent this effect”, the “reduction of body weight on day 3 compared to baseline” value (TNBS-induced colitis; 25 mg/kg ip bid 2 d, TNBS alone 18.2%) was 15.3% and the “histological score (mean±SEM)” value (TNBS-induced colitis; 25 mg/kg ip bid 2 d, TNBS control 38.3±1.7, scale 0 to 40) was 23.3±3.3. For the same substance, the “reduction of histological score compared to TNBS control” value (TNBS-induced colitis; 25 mg/kg ip bid 2 d, p<0.01) was 39.1%, the “prevention of weight loss” value (TNBS-induced colitis; 25 mg/kg ip twice a day for two days) was “did not prevent weight loss” and the “DSS-induced NF-κB-DNA binding activity (NF-κB activation)” value (from here on “DSS-induced NF-κB-DNA binding activity”) ([2]; 30 μM, listed as MC 12) was “significantly blocked this effect”. The “DSS-induced NF-κB-DNA binding activity” value ([2]; 30 μM, listed as MC-12) was “essentially eliminated NF-κB activation”, the “DSS-induced NF-κB-DNA binding activity” value ([2]; 300 μM, listed as MC 12) was “significantly blocked this effect” and the “DSS-induced NF-κB-DNA binding activity” value ([2]; 300 μM, listed as MC-12) was “essentially eliminated NF-κB activation”. The “reduction of histological score compared to DSS control” value (DSS-induced colitis [3]; 5 mg/kg ip) was 48.9%, the “DSS-induced colonic inflammation (H&E histology)” value (DSS-induced colitis [3]; 25 mg/kg ip) was “significantly decreased DSS-induced colonic inflammation” and the “reduction of histological score compared to DSS control” value (DSS-induced colitis [3]; 25 mg/kg ip) was 66.8%. The weight loss (DSS-induced colitis [3]; 2% DSS 8 days, MC-12 5 or 25 mg/kg) was “prevented such weight loss in a dose-dependent manner”, the “colon length (DSS-induced reduction)” value (DSS-induced colitis [3]; 2% DSS 8 days, MC-12 5 or 25 mg/kg, ip and po) was “prevented this reduction in colon length in a dose-dependent manner” and the “prevention of weight loss, ip compared to po” value (DSS-induced colitis [3]; 2% DSS 8 days, ip vs po) was “more effective in preventing weight loss when given ip compared to po”.

Reference: patent US20130261066A1, “TREATMENT OF INFLAMMATORY BOWEL DISEASES USING A TRIPEPTIDE” (THE RESEARCH FOUNDATION OF STATE UNIVERSITY OF NEW YORK, priority 2010, published 2013)
